Assay results published in PubChem BioAssay (NCI).
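Interpolation was linear, between the two tested concentrations surrounding the appropriate level; five concentrations were tested over 48 hours in 96-well plates. GI50 is the concentration that inhibits growth by half. The concentration for full growth arrest is given as TGI.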

Legend:
Test in all cases: NCI anticancer screen, dose series, 48 h
SF-295 CNS = test system: SF-295 CNS
A498 renal = test system: A498 renal
SF-268 CNS = test system: SF-268 CNS
RXF 393 renal = test system: RXF 393 renal
HOP-62 NSCLC = test system: HOP-62 NSCLC
MCF7 breast = test system: MCF7 breast
HOP-92 NSCLC = test system: HOP-92 NSCLC
IGROV1 ovarian = test system: IGROV1 ovarian
U251 CNS = test system: U251 CNS
CAKI-1 renal = test system: CAKI-1 renal
EKVX NSCLC = test system: EKVX NSCLC
COLO 205 colon = test system: COLO 205 colon
OVCAR-4 ovarian = test system: OVCAR-4 ovarian
DU-145 prostate = test system: DU-145 prostate
RPMI-8226 leukemia = test system: RPMI-8226 leukemia
KM12 colon = test system: KM12 colon
PC-3 prostate = test system: PC-3 prostate
NCI/ADR-RES ovarian = test system: NCI/ADR-RES ovarian
UACC-62 melanoma = test system: UACC-62 melanoma
UO-31 renal = test system: UO-31 renal
SNB-75 CNS = test system: SNB-75 CNS
ACHN renal = test system: ACHN renal
SK-MEL-2 melanoma = test system: SK-MEL-2 melanoma
HT29 colon = test system: HT29 colon
TK-10 renal = test system: TK-10 renal
A549 NSCLC = test system: A549 NSCLC
HCT-15 colon = test system: HCT-15 colon
MDA-MB-435 = test system: MDA-MB-435
786-0 renal = test system: 786-0 renal
MDA-MB-468 breast = test system: MDA-MB-468 breast
MOLT-4 leukemia = test system: MOLT-4 leukemia
HS 578T breast = test system: HS 578T breast
SF-539 CNS = test system: SF-539 CNS
NCI-H23 lung = test system: NCI-H23 lung
OVCAR-3 ovarian = test system: OVCAR-3 ovarian
SR leukemia = test system: SR leukemia
LOX IMVI melanoma = test system: LOX IMVI melanoma
HCC-2998 colon = test system: HCC-2998 colon
OVCAR-5 ovarian = test system: OVCAR-5 ovarian
SW-620 colon = test system: SW-620 colon
SK-OV-3 ovarian = test system: SK-OV-3 ovarian
M14 melanoma = test system: M14 melanoma
UACC-257 melanoma = test system: UACC-257 melanoma
K-562 leukemia = test system: K-562 leukemia
NCI-H522 lung = test system: NCI-H522 lung
OVCAR-8 ovarian = test system: OVCAR-8 ovarian
SNB-19 CNS = test system: SNB-19 CNS
MALME-3M melanoma = test system: MALME-3M melanoma
NCI-H460 lung = test system: NCI-H460 lung
SK-MEL-5 melanoma = test system: SK-MEL-5 melanoma
SK-MEL-28 melanoma = test system: SK-MEL-28 melanoma
MDA-MB-231 breast = test system: MDA-MB-231 breast
CCRF-CEM leukemia = test system: CCRF-CEM leukemia
HL-60(TB) leukemia = test system: HL-60(TB) leukemia
T-47D breast = test system: T-47D breast
SN12C renal = test system: SN12C renal
BT-549 breast = test system: BT-549 breast
NCI-H226 lung = test system: NCI-H226 lung
HCT-116 colon = test system: HCT-116 colon

## CCC[Se]C(=O)c1ccc(C(=O)[Se]CCC)s1
SF-295 CNS
  GI50: < 14.4 nM
  TGI: < 38.5 nM
A498 renal
  GI50: 63.5 nM
  TGI: 917 nM
SF-268 CNS
  GI50: < 11 nM
  TGI: 67.5 nM
RXF 393 renal
  GI50: < 10 nM
  TGI: 64.4 nM
HOP-62 NSCLC
  GI50: < 12 nM
  TGI: 63.3 nM
MCF7 breast
  GI50: < 10 nM
  TGI: 170 nM
HOP-92 NSCLC
  GI50: < 18.9 nM
IGROV1 ovarian
  GI50: < 13.1 nM
  TGI: 234 nM
U251 CNS
  GI50: < 10.6 nM
  TGI: 139 nM
CAKI-1 renal
  GI50: < 11.2 nM
  TGI: 175 nM
EKVX NSCLC
  GI50: < 24.6 nM
  TGI: 82.1 nM
COLO 205 colon
  GI50: 639 nM
  TGI: 2100 nM
OVCAR-4 ovarian
  GI50: 2870 nM
  TGI: 30000 nM
DU-145 prostate
  GI50: 95.5 nM
  TGI: 1300 nM
RPMI-8226 leukemia
  GI50: 300 nM
  TGI: 2000 nM
KM12 colon
  GI50: 27.6 nM
  TGI: 1300 nM
PC-3 prostate
  GI50: 22.4 nM
  TGI: 2890 nM
NCI/ADR-RES ovarian
  GI50: < 10 nM
UACC-62 melanoma
  GI50: 22.5 nM
  TGI: 556 nM
UO-31 renal
  GI50: < 20 nM
  TGI: 341 nM
SNB-75 CNS
  GI50: < 33.6 nM
  TGI: 3070 nM
ACHN renal
  GI50: 110 nM
  TGI: 1220 nM
SK-MEL-2 melanoma
  GI50: 40.8 nM
  TGI: 1140 nM
HT29 colon
  GI50: < 10 nM
  TGI: 112 nM
TK-10 renal
  GI50: 121 nM
  TGI: 1320 nM
A549 NSCLC
  GI50: < 10 nM
  TGI: 85 nM
HCT-15 colon
  GI50: 54.6 nM
  TGI: 217 nM
MDA-MB-435
  GI50: < 10 nM
  TGI: 19.9 nM
786-0 renal
  GI50: 172 nM
  TGI: 2250 nM
MDA-MB-468 breast
  GI50: < 18 nM
  TGI: 75 nM
MOLT-4 leukemia
  GI50: < 10 nM
  TGI: 5100 nM
HS 578T breast
  GI50: < 10 nM
  TGI: 411 nM
SF-539 CNS
  GI50: < 10.7 nM
  TGI: < 21.8 nM
NCI-H23 lung
  GI50: 19.7 nM
  TGI: 114 nM
OVCAR-3 ovarian
  GI50: 103 nM
  TGI: 370 nM
SR leukemia
  GI50: 38.6 nM
  TGI: 10300 nM
LOX IMVI melanoma
  GI50: < 13.1 nM
  TGI: < 34.6 nM
HCC-2998 colon
  GI50: 239 nM
  TGI: 1840 nM
OVCAR-5 ovarian
  GI50: < 16.2 nM
  TGI: 455 nM
SW-620 colon
  GI50: 57.3 nM
  TGI: 320 nM
SK-OV-3 ovarian
  GI50: 39.5 nM
  TGI: 837 nM
M14 melanoma
  GI50: < 10 nM
  TGI: < 21.1 nM
UACC-257 melanoma
  GI50: 58.7 nM
  TGI: 1160 nM
K-562 leukemia
  GI50: 41.4 nM
  TGI: 21400 nM
NCI-H522 lung
  GI50: 943 nM
  TGI: 2770 nM
OVCAR-8 ovarian
  GI50: < 10 nM
  TGI: 45.7 nM
SNB-19 CNS
  GI50: < 10 nM
  TGI: 131 nM
MALME-3M melanoma
  GI50: < 35.2 nM
  TGI: 118 nM
NCI-H460 lung
  GI50: < 10 nM
  TGI: 10.4 nM
SK-MEL-5 melanoma
  GI50: < 49.1 nM
  TGI: 159 nM
SK-MEL-28 melanoma
  GI50: < 10 nM
  TGI: 29.4 nM
MDA-MB-231 breast
  GI50: < 10 nM
  TGI: < 20 nM
CCRF-CEM leukemia
  GI50: 1660 nM
  TGI: 16100 nM
HL-60(TB) leukemia
  GI50: < 10 nM
  TGI: 662 nM
T-47D breast
  GI50: 1030 nM
  TGI: 10700 nM
SN12C renal
  GI50: < 10 nM

## COc1ccc2cc([C@H](C)C(=O)[Se]CCC#N)ccc2c1
SF-295 CNS
  GI50: 1810 nM
  TGI: 3550 nM
A498 renal
  GI50: 1780 nM
  TGI: 3270 nM
SF-268 CNS
  GI50: 2440 nM
  TGI: 5110 nM
RXF 393 renal
  GI50: 1670 nM
  TGI: 3220 nM
HOP-62 NSCLC
  GI50: 2160 nM
  TGI: 3940 nM
MCF7 breast
  GI50: 2220 nM
  TGI: 10000 nM
HOP-92 NSCLC
  GI50: 1760 nM
  TGI: 3480 nM
IGROV1 ovarian
  GI50: 2230 nM
  TGI: 4980 nM
U251 CNS
  GI50: 1700 nM
  TGI: 3260 nM
CAKI-1 renal
  GI50: 1880 nM
  TGI: 3320 nM
COLO 205 colon
  GI50: 5810 nM
  TGI: 23100 nM
DU-145 prostate
  GI50: 2660 nM
  TGI: 8510 nM
RPMI-8226 leukemia
  GI50: 2860 nM
  TGI: 9320 nM
KM12 colon
  GI50: 5630 nM
  TGI: 50900 nM
PC-3 prostate
  GI50: 2700 nM
  TGI: 8530 nM
NCI/ADR-RES ovarian
  GI50: 2000 nM
  TGI: 5210 nM
UACC-62 melanoma
  GI50: 2520 nM
  TGI: 7520 nM
UO-31 renal
  GI50: 1440 nM
  TGI: 2780 nM
SNB-75 CNS
  GI50: 1780 nM
  TGI: 3590 nM
ACHN renal
  GI50: 2420 nM
  TGI: 5420 nM
SK-MEL-2 melanoma
  GI50: 1900 nM
  TGI: 4390 nM
HT29 colon
  GI50: 2020 nM
  TGI: 4820 nM
TK-10 renal
  GI50: 1630 nM
  TGI: 3090 nM
HCT-15 colon
  GI50: 2000 nM
  TGI: 4530 nM
MDA-MB-435
  GI50: 1790 nM
  TGI: 3730 nM
786-0 renal
  GI50: 2120 nM
  TGI: 3720 nM
MDA-MB-468 breast
  GI50: 1960 nM
  TGI: 4410 nM
MOLT-4 leukemia
  GI50: 2620 nM
  TGI: 13000 nM
HS 578T breast
  GI50: 2070 nM
  TGI: 7290 nM
SF-539 CNS
  GI50: 1950 nM
  TGI: 3750 nM
NCI-H23 lung
  GI50: 2710 nM
  TGI: 7950 nM
OVCAR-3 ovarian
  GI50: 2390 nM
  TGI: 5780 nM
BT-549 breast
  GI50: 1610 nM
  TGI: 3120 nM
SR leukemia
  GI50: 2130 nM
  TGI: 12200 nM
LOX IMVI melanoma
  GI50: 1890 nM
  TGI: 4970 nM
HCC-2998 colon
  GI50: 7060 nM
  TGI: 22600 nM
OVCAR-5 ovarian
  GI50: 2520 nM
  TGI: 6290 nM
NCI-H226 lung
  GI50: 1560 nM
  TGI: 3630 nM
SW-620 colon
  GI50: 2910 nM
  TGI: 7970 nM
SK-OV-3 ovarian
  GI50: 4490 nM
  TGI: 7420 nM
M14 melanoma
  GI50: 1480 nM
  TGI: 3440 nM
K-562 leukemia
  GI50: 3780 nM
  TGI: 23600 nM
NCI-H522 lung
  GI50: 1480 nM
  TGI: 2920 nM
SNB-19 CNS
  GI50: 1790 nM
  TGI: 3470 nM
MALME-3M melanoma
  GI50: 1640 nM
  TGI: 3390 nM
NCI-H460 lung
  GI50: 2720 nM
  TGI: 12100 nM
SK-MEL-5 melanoma
  GI50: 2020 nM
  TGI: 4070 nM
SK-MEL-28 melanoma
  GI50: 2020 nM
  TGI: 4800 nM
CCRF-CEM leukemia
  GI50: 3060 nM
  TGI: 56800 nM
HL-60(TB) leukemia
  GI50: 1380 nM
  TGI: 4240 nM
HCT-116 colon
  GI50: 1790 nM
  TGI: 3370 nM
T-47D breast
  GI50: 5430 nM
  TGI: 28200 nM
